Assay results: ChEMBL document CHEMBL4145544, “Discovery and optimization of 1-(1H-indol-1-yl)ethanone derivatives as CBP/EP300 bromodomain inhibitors for the treatment of castration-resistant prostate cancer” (Eur J Med Chem, 2018)
Calls of active or inactive are those of the source. The calls are words filed in the database; no cut-off is given here.

Columns and labels:
[1] = target: T1, Bromodomain-containing protein 4 (Homo sapiens, UniProt O60885); assay: Inhibition of biotinylated-H4KAc4 binding to human His6-tagged BRD4 bromodomain-1 (N44 to E168 residues) expressed in Escherichia coli BL21(DE3) after 2.5 hrs by luminescence-based AlphaScreen assay
[2] = target: T2, Transcription intermediary factor 1-alpha (Homo sapiens, UniProt O15164); assay: Inhibition of biotinylated-H4KAc4 binding to human His6-tagged TIF-1 (G896 to E1014 residues) expressed in Escherichia coli BL21(DE3) after 2.5 hrs by luminescence-based AlphaScreen assay
T2 sequence (O15164 whole entry): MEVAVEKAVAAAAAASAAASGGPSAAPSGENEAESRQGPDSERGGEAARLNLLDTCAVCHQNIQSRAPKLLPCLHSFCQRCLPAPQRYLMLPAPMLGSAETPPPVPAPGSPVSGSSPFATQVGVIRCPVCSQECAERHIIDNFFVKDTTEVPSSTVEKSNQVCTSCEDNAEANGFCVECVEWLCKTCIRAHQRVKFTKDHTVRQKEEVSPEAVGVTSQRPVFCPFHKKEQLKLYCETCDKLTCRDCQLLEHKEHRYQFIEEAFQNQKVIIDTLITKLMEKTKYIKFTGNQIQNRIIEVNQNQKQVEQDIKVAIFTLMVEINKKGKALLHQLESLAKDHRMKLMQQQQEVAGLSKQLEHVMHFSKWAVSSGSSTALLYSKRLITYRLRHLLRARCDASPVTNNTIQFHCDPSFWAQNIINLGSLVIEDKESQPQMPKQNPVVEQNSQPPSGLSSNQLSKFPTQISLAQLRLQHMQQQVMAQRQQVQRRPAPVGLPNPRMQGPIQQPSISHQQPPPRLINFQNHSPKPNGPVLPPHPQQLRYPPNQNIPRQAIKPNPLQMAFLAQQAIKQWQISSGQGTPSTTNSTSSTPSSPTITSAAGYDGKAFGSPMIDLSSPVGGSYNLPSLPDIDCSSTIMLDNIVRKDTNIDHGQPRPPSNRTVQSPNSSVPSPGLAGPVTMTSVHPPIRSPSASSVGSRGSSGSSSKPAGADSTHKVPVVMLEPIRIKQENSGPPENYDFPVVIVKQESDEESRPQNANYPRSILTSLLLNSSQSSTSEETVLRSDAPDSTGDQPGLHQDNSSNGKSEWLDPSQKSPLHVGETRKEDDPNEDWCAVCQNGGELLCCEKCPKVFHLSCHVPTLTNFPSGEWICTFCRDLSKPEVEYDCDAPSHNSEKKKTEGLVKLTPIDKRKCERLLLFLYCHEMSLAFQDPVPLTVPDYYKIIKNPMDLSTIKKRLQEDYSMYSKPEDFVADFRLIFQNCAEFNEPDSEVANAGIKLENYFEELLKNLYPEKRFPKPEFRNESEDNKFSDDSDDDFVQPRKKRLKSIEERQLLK

[3] = target: T3, Transcription initiation factor TFIID subunit 1 (Homo sapiens, UniProt P21675); assay: Inhibition of biotinylated-H4KAc4 binding to human His6-tagged TAF-1 (R1377 to D1503 residues) expressed in Escherichia coli BL21(DE3) after 2.5 hrs by luminescence-based AlphaScreen assay
T3 sequence (P21675 whole entry, the tested form may be a part): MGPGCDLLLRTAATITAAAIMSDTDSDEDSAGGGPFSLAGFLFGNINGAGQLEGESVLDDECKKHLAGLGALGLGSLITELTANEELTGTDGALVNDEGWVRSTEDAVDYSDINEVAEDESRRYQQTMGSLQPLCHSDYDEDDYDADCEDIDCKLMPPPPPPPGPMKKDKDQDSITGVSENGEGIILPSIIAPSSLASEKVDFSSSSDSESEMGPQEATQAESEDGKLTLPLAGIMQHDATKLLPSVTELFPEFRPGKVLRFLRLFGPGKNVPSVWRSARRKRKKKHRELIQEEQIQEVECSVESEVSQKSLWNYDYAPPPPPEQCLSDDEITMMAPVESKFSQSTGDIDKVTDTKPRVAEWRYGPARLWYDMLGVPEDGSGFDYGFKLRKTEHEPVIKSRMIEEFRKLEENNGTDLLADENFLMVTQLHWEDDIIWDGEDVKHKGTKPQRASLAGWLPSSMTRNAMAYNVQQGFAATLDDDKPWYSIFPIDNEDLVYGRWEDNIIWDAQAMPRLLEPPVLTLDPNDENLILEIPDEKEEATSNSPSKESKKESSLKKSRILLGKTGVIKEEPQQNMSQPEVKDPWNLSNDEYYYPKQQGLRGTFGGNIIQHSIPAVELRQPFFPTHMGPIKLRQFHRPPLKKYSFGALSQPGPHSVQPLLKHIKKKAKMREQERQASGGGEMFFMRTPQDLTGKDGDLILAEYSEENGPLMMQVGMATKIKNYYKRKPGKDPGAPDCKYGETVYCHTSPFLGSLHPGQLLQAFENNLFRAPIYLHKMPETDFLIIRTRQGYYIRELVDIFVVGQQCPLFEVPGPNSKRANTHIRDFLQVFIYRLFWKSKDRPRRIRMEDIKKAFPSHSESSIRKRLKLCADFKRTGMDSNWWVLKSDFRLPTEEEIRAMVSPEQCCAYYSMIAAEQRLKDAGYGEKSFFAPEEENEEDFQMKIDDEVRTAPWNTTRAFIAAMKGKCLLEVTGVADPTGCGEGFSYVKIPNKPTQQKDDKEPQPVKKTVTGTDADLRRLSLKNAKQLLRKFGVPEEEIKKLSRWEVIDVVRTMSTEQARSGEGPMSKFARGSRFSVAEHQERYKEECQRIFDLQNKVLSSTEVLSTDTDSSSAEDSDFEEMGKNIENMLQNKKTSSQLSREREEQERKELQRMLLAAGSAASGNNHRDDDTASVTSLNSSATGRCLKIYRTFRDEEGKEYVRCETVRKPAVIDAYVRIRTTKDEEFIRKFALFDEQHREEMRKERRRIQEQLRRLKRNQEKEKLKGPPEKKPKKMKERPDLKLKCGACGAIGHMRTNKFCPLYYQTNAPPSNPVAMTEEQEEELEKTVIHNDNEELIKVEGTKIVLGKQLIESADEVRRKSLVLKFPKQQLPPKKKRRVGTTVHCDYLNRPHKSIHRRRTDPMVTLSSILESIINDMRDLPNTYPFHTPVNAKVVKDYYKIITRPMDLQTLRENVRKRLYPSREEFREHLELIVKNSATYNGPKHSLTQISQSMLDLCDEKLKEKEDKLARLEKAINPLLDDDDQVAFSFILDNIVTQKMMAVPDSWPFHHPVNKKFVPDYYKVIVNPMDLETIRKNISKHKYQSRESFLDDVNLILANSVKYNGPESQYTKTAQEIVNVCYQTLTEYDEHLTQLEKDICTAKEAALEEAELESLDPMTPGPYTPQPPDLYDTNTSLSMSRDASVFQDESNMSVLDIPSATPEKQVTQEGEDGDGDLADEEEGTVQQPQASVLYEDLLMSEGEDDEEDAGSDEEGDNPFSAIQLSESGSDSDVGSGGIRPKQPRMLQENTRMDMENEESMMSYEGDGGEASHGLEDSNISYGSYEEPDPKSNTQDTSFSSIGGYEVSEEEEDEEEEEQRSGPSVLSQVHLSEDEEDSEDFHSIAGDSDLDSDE

[4] = target: T4, Bromodomain-containing protein 9 (Homo sapiens, UniProt Q9H8M2); assay: Inhibition of biotinylated-H4KAc4 binding to human His6-tagged BRD9 (L14 to Q134 residues) expressed in Escherichia coli BL21(DE3) after 2.5 hrs by luminescence-based AlphaScreen assay
T4 sequence (Q9H8M2 whole entry): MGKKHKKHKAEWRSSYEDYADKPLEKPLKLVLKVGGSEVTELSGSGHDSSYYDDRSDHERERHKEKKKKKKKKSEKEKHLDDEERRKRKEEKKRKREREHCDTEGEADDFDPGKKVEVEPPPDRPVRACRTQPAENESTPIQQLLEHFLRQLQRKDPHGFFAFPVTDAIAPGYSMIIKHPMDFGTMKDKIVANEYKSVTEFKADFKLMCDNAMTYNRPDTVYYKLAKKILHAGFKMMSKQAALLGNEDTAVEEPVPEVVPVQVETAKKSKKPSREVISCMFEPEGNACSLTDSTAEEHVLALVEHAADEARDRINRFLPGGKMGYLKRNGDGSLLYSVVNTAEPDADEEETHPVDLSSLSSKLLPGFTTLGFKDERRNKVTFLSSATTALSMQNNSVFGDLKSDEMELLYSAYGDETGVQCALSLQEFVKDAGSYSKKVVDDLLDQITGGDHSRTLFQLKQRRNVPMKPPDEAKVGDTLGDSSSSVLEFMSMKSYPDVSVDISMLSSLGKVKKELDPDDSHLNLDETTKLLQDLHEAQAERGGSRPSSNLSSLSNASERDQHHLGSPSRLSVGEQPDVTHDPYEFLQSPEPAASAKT

CREB-binding protein [5] = target: T5, CREB-binding protein (Homo sapiens, UniProt Q92793); assay: Inhibition of biotinylated-H4KAc4 binding to human His6-tagged CBP (R1081 to G1197 residues) expressed in Escherichia coli BL21(DE3) after 2.5 hrs by luminescence-based AlphaScreen assay
Target sequence in this assay (Q92793 whole entry, the tested form may be a part): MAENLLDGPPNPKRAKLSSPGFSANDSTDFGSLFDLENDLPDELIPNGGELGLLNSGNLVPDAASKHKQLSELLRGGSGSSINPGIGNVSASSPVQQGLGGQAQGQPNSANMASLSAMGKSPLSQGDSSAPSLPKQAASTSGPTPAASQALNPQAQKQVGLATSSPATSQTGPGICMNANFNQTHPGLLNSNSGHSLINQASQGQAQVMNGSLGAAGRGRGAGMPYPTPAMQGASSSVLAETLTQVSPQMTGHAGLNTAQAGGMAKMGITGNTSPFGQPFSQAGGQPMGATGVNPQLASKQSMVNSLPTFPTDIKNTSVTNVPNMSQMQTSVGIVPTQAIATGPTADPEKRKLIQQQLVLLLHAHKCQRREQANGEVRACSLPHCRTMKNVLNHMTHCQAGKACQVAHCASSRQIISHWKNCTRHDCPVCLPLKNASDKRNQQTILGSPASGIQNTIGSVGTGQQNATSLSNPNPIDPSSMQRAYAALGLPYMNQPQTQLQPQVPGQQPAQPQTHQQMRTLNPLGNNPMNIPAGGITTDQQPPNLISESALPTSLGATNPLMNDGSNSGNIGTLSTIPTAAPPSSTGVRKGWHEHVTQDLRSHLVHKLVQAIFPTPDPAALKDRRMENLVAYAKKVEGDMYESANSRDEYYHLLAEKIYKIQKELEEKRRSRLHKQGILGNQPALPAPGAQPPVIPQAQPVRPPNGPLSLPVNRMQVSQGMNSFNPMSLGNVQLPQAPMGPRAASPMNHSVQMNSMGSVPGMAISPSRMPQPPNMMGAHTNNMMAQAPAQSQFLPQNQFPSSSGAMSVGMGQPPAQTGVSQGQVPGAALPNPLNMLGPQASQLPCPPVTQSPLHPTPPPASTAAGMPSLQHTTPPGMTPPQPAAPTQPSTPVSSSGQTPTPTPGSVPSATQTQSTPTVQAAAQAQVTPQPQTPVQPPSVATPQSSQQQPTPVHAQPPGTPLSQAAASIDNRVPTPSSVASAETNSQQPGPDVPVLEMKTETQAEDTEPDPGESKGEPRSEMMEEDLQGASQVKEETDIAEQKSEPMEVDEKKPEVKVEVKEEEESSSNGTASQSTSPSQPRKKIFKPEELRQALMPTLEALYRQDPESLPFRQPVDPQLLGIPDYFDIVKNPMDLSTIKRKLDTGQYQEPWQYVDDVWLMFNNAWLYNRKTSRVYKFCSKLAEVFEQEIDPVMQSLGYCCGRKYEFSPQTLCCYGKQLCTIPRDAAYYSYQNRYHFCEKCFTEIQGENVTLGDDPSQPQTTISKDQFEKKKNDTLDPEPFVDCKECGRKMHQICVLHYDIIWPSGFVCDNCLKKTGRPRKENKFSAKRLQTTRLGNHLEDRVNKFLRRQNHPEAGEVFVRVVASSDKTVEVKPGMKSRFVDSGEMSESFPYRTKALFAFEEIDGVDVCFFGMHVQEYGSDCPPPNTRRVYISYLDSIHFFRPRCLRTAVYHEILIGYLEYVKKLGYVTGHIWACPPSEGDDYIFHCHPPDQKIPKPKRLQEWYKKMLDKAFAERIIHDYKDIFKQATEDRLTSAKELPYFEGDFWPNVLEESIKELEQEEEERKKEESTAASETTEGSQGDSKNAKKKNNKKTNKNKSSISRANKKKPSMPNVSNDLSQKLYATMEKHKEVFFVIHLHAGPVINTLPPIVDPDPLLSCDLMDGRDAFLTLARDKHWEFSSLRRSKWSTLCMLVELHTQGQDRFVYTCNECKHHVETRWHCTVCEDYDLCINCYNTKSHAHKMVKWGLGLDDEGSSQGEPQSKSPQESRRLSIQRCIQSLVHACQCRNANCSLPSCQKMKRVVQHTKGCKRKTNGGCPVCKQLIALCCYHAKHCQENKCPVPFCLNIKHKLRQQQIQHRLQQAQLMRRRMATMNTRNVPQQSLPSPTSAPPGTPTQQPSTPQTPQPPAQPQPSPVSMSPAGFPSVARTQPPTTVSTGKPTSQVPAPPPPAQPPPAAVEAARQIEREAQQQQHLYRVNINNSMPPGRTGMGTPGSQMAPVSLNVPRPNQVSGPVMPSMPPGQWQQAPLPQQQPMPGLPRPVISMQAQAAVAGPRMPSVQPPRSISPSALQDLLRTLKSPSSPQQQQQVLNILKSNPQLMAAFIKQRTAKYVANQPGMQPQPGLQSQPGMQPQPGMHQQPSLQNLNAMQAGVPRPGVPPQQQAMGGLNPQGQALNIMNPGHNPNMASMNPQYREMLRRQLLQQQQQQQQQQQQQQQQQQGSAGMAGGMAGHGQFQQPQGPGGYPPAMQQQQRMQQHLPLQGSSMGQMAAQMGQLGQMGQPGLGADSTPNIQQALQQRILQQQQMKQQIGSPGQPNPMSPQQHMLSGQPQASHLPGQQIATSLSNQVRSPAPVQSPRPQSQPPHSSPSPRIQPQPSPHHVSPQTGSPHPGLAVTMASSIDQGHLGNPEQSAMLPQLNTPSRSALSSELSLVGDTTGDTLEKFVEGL

[6] = target: T6, Histone acetyltransferase p300 (Homo sapiens, UniProt Q09472); assay: Inhibition of biotinylated-H4KAc4 binding to human His6-tagged EP300 (A1040 to G1161 residues) expressed in Escherichia coli BL21(DE3) after 2.5 hrs by luminescence-based AlphaScreen assay
[7] = target: T7, Histone acetyltransferase KAT2B (Homo sapiens, UniProt Q92831); assay: Inhibition of biotinylated-H4KAc4 binding to human His6-tagged PCAF (G715 to D831 residues) expressed in Escherichia coli BL21(DE3) after 2.5 hrs by luminescence-based AlphaScreen assay
Target sequence in this assay (Q92831 whole entry, the tested form may be a part): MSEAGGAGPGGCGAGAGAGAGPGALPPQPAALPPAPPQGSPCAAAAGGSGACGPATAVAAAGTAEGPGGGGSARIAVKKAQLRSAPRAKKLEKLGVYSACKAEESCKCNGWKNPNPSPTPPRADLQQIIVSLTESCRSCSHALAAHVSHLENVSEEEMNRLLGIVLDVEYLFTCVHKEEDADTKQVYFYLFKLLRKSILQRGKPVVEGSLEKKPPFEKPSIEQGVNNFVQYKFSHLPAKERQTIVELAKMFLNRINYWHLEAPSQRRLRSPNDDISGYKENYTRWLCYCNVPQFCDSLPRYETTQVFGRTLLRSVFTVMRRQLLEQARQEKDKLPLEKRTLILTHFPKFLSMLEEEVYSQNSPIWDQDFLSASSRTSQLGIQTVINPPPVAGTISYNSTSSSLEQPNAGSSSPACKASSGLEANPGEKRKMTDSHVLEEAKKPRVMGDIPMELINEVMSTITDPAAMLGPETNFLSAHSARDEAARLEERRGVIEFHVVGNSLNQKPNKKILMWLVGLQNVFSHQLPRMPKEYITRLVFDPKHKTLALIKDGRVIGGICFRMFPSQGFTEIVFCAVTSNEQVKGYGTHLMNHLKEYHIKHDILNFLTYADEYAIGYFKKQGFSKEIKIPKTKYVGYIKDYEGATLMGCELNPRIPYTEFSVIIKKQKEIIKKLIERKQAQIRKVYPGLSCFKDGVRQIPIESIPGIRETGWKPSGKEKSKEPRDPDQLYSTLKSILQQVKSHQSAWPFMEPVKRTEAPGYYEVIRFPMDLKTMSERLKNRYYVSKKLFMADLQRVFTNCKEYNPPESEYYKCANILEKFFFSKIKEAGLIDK

[8] = target: T8, Bromodomain adjacent to zinc finger domain protein 2B (Homo sapiens, UniProt Q9UIF8); assay: Inhibition of biotinylated-H4KAc4 binding to human His6-tagged BAZ2B (S1858 to S1972 residues) expressed in Escherichia coli BL21(DE3) after 2.5 hrs by luminescence-based AlphaScreen assay
CWR22R [9] = assay: Anticlonogenic activity against human 22Rv1 cells after 14 days by crystal violet staining based assay; format: functional, cell-based
CREB-binding protein [10] = target: T5, CREB-binding protein; assay: Binding affinity to human His6-tagged CBP (R1081 to G1197 residues) expressed in Escherichia coli BL21(DE3) assessed as change in melting temperature at 200 uM after 30 mins by SYPRO orange dye based fluorescence assay
LNCaP C4-2B [11] = assay: Anticlonogenic activity against human C4-2B cells after 14 days by crystal violet staining based assay; format: functional, cell-based
[12] = target: T8, Bromodomain adjacent to zinc finger domain protein 2B; assay: Binding affinity to human His6-tagged BAZ2B (S1858 to S1972 residues) expressed in Escherichia coli BL21(DE3) assessed as change in melting temperature at 200 uM after 30 mins by SYPRO orange dye based fluorescence assay
CWR22R [13] = tested on: CWR22R
Description: (§1) Antiproliferative activity against human 22Rv1 cells after 72 hrs by Cell-Titer Glo assay

[14] = target: T1, Bromodomain-containing protein 4; assay: Binding affinity to human His6-tagged BRD4 bromodomain-1 (N44 to E168 residues) expressed in Escherichia coli BL21(DE3) assessed as change in melting temperature at 200 uM after 30 mins by SYPRO orange dye based fluorescence assay
[15] = target: T7, Histone acetyltransferase KAT2B; assay: Binding affinity to human His6-tagged PCAF (G715 to D831 residues) expressed in Escherichia coli BL21(DE3) assessed as change in melting temperature at 200 uM after 30 mins by SYPRO orange dye based fluorescence assay
[16] = target: T3, Transcription initiation factor TFIID subunit 1; assay: Binding affinity to human His6-tagged TAF-1 (R1377 to D1503 residues) expressed in Escherichia coli BL21(DE3) assessed as change in melting temperature at 200 uM after 30 mins by SYPRO orange dye based fluorescence assay
[17] = target: Bromodomain-containing protein 9 (Homo sapiens) (UniProt Q9H8M2); assay: Binding affinity to human His6-tagged BRD9 (L14 to Q134 residues) expressed in Escherichia coli BL21(DE3) assessed as change in melting temperature at 200 uM after 30 mins by SYPRO orange dye based fluorescence assay
[18] = target: T6, Histone acetyltransferase p300; assay: Binding affinity to human His6-tagged EP300 (A1040 to G1161 residues) expressed in Escherichia coli BL21(DE3) assessed as change in melting temperature at 200 uM after 30 mins by SYPRO orange dye based fluorescence assay
LNCaP [19] = assay: Antiproliferative activity against human LNCAP cells after 72 hrs by Cell-Titer Glo assay; format: functional, cell-based
[20] = target: Transcription intermediary factor 1-alpha (Homo sapiens) (UniProt O15164); assay: Binding affinity to human His6-tagged TIF-1 (G896 to E1014 residues) expressed in Escherichia coli BL21(DE3) assessed as change in melting temperature at 200 uM after 30 mins by SYPRO orange dye based fluorescence assay
CWR22R [21] = assay: Potency index, ratio of enzalutamide IC50 to compound IC50 for antiproliferative activity against human 22Rv1 cells; format: functional
CWR22R [22] = assay: cells; details: Homo sapiens, 22Rv1, 72 h
Description: as §1

LNCaP [23] = assay: Potency index, ratio of enzalutamide IC50 to compound IC50 for antiproliferative activity against human LNCAP cells; format: functional
CWR22R [24] = assay: Anticlonogenic activity against human 22Rv1 cells at 4 uM after 14 days by crystal violet staining based assay relative to control; format: functional
LNCaP C4-2B [25] = assay: Anticlonogenic activity against human C4-2B cells at 4 uM after 14 days by crystal violet staining based assay relative to control; format: functional
[26] = target: T1, Bromodomain-containing protein 4; assay: Inhibition of biotinylated-H4KAc4 binding to human His6-tagged BRD4 bromodomain-1 (N44 to E168 residues) expressed in Escherichia coli BL21(DE3) at 50 uM after 2.5 hrs by luminescence-based AlphaScreen assay relative to control
[27] = target: T8, Bromodomain adjacent to zinc finger domain protein 2B; assay: Inhibition of biotinylated-H4KAc4 binding to human His6-tagged BAZ2B (S1858 to S1972 residues) expressed in Escherichia coli BL21(DE3) at 50 uM after 2.5 hrs by luminescence-based AlphaScreen assay relative to control
[28] = Homo sapiens, LNCaP, 72 h, read-out: IC50

IC50 [1]	IC50 [2]	IC50 [3]	IC50 [4]	IC50 (CREB-binding protein [5])	IC50 [6]	IC50 [7]	IC50 [8]	IC50 (CWR22R [13])	IC50 (LNCaP [19]; lncap)	SMILES	Activity (CWR22R [9])	Activity (LNCaP C4-2B [11])	further results
> 20 µM	> 20 µM	> 20 µM	> 20 µM	1 µM	2.51 µM	> 20 µM	> 20 µM	–	–	CC(=O)n1cc(C(=O)Nc2cc(COC3CCCCO3)cc(C(=O)O)c2)c2ccccc21 (centres undefined)	–	–	–
> 20 µM	> 20 µM	> 20 µM	> 20 µM	0.037 µM	0.049 µM	> 20 µM	> 20 µM	Not Active	Not Active	COc1ccc2c(c1)c(C(=O)Nc1cc(C(=O)O)cc(-c3cnn(C)c3)c1F)cn2C(C)=O	inactive	inactive	ΔTm (CREB-binding protein [10]): 8.7 °C; ΔTm [12]: 0.3 °C; ΔTm [14]: 1.2 °C; ΔTm [15]: -0.3 °C; ΔTm [16]: 0.6 °C; ΔTm [17]: 0.9 °C; ΔTm [18]: 7.2 °C; ΔTm [20]: 0 °C
2.19 µM	10.4 µM	> 20 µM	> 20 µM	0.65 µM	0.97 µM	> 20 µM	1.69 µM	–	–	CC(=O)n1cc(C(=O)Nc2cc(C(=O)O)cc(-c3ccco3)c2)c2ccccc21	–	–	–
–	–	–	–	–	–	–	–	–	–	COc1ccc2c(c1)c(C(=O)Nc1cc(C(=O)OC(C)(C)C)cc(-c3ccco3)c1)cn2C(C)=O	–	–	Ratio IC50 (CWR22R [21]): 17; IC50 (CWR22R [22]): 4.31 µM; Ratio IC50 (LNCaP [23]): 17; IC50 (LNCaP [19]; [28]): 1.76 µM
–	–	–	–	–	–	–	–	–	–	COc1ccc2c(c1)c(C(=O)Nc1cc(C(=O)OC(C)(C)C)cc(-c3cnn(C)c3)c1)cn2C(C)=O	Dose-dependent effect	Dose-dependent effect	Ratio IC50 (CWR22R [21]): 17; IC50 (CWR22R [22]): 2.22 µM; Ratio IC50 (LNCaP [23]): 17; Activity (CWR22R [24]): <10%; Activity (LNCaP C4-2B [25]): <10%; IC50 (LNCaP [19]; [28]): 1.28 µM
> 20 µM	> 20 µM	> 20 µM	> 20 µM	0.16 µM	0.51 µM	> 20 µM	> 20 µM	Not Active	Not Active	COc1ccc2c(c1)c(C(=O)Nc1cc(C(=O)O)cc(-c3cnn(C)c3)c1)cn2C(C)=O	inactive	inactive	ΔTm (CREB-binding protein [10]): 5.7 °C; ΔTm [12]: 1.5 °C; ΔTm [14]: 1.1 °C; ΔTm [15]: -1.5 °C; ΔTm [16]: 0.9 °C; ΔTm [17]: -0.9 °C; ΔTm [18]: 5.7 °C; ΔTm [20]: -0.3 °C
> 20 µM	> 20 µM	> 20 µM	> 20 µM	–	–	> 20 µM	> 20 µM	Not Active	Not Active	COc1ccc(CCc2nc3cc(-c4c(C)noc4C)ccc3n2C[C@H](C)N2CCOCC2)cc1Cl	–	–	inhibition [26]: 62%; inhibition [27]: 41%
> 20 µM	> 20 µM	> 20 µM	> 20 µM	0.77 µM	4.45 µM	> 20 µM	> 20 µM	–	–	CC(=O)n1cc(C(=O)Nc2cc(C(=O)O)ccc2F)c2ccccc21	–	–	–
> 20 µM	> 20 µM	> 20 µM	> 20 µM	1.69 µM	5.55 µM	> 20 µM	> 20 µM	–	–	CC(=O)n1cc(C(=O)Nc2cccc(C(=O)O)c2)c2ccccc21	–	–	–
> 20 µM	> 20 µM	> 20 µM	> 20 µM	0.14 µM	1.78 µM	> 20 µM	12.2 µM	Not Active	Not Active	COc1ccc2c(c1)c(C(=O)Nc1cc(C(=O)O)cc(-c3ccco3)c1)cn2C(C)=O	–	–	–
